Test results from BigSolDB 2.1.

## Cn1cc([N+](=O)[O-])cn1
In 1,2-dichlorobenzene, 283.15 K
  solubility (mole fraction): 0.000121
In 1,2-dichlorobenzene, 288.15 K
  solubility (mole fraction): 0.000147
In 1,2-dichlorobenzene, 293.15 K
  solubility (mole fraction): 0.000179
In 1,2-dichlorobenzene, 298.15 K
  solubility (mole fraction): 0.000215
In 1,2-dichlorobenzene, 303.15 K
  solubility (mole fraction): 0.000266
In 1,2-dichlorobenzene, 308.15 K
  solubility (mole fraction): 0.000331
In 1,2-dichlorobenzene, 313.15 K
  solubility (mole fraction): 0.000402
In 1,2-dichlorobenzene, 318.15 K
  solubility (mole fraction): 0.000492
In 1,2-dichlorobenzene, 323.15 K
  solubility (mole fraction): 0.000607
In 2-butanone, 283.15 K
  solubility (mole fraction): 0.0093
In 2-butanone, 288.15 K
  solubility (mole fraction): 0.0098
In 2-butanone, 293.15 K
  solubility (mole fraction): 0.0112
In 2-butanone, 298.15 K
  solubility (mole fraction): 0.0139
In 2-butanone, 303.15 K
  solubility (mole fraction): 0.0162
In 2-butanone, 308.15 K
  solubility (mole fraction): 0.0177
In 2-butanone, 313.15 K
  solubility (mole fraction): 0.021
In 2-butanone, 318.15 K
  solubility (mole fraction): 0.0242
In 2-butanone, 323.15 K
  solubility (mole fraction): 0.0285
In 2-pentanol, 283.15 K
  solubility (mole fraction): 0.000501
In 2-pentanol, 288.15 K
  solubility (mole fraction): 0.000685
In 2-pentanol, 293.15 K
  solubility (mole fraction): 0.000871
In 2-pentanol, 298.15 K
  solubility (mole fraction): 0.0011
In 2-pentanol, 303.15 K
  solubility (mole fraction): 0.00142
In 2-pentanol, 308.15 K
  solubility (mole fraction): 0.00175
In 2-pentanol, 313.15 K
  solubility (mole fraction): 0.00221
In 2-pentanol, 318.15 K
  solubility (mole fraction): 0.00278
In 2-pentanol, 323.15 K
  solubility (mole fraction): 0.00348
In acetic acid, 283.15 K
  solubility (mole fraction): 0.000218
In acetic acid, 288.15 K
  solubility (mole fraction): 0.000296
In acetic acid, 293.15 K
  solubility (mole fraction): 0.00039
In acetic acid, 298.15 K
  solubility (mole fraction): 0.000508
In acetic acid, 303.15 K
  solubility (mole fraction): 0.000633
In acetic acid, 308.15 K
  solubility (mole fraction): 0.000776
In acetic acid, 313.15 K
  solubility (mole fraction): 0.000925
In acetic acid, 318.15 K
  solubility (mole fraction): 0.00108
In acetic acid, 323.15 K
  solubility (mole fraction): 0.0012
In acetone, 283.15 K
  solubility (mole fraction): 0.0192
In acetone, 288.15 K
  solubility (mole fraction): 0.0239
In acetone, 293.15 K
  solubility (mole fraction): 0.0299
In acetone, 298.15 K
  solubility (mole fraction): 0.0379
In acetone, 303.15 K
  solubility (mole fraction): 0.0485
In acetone, 308.15 K
  solubility (mole fraction): 0.0626
In acetone, 313.15 K
  solubility (mole fraction): 0.0814
In acetone, 318.15 K
  solubility (mole fraction): 0.107
In acetone, 323.15 K
  solubility (mole fraction): 0.141
In acetonitrile, 283.15 K
  solubility (mole fraction): 0.00299
In acetonitrile, 288.15 K
  solubility (mole fraction): 0.00334
In acetonitrile, 293.15 K
  solubility (mole fraction): 0.00423
In acetonitrile, 298.15 K
  solubility (mole fraction): 0.00507
In acetonitrile, 303.15 K
  solubility (mole fraction): 0.006
In acetonitrile, 308.15 K
  solubility (mole fraction): 0.00673
In acetonitrile, 313.15 K
  solubility (mole fraction): 0.00756
In acetonitrile, 318.15 K
  solubility (mole fraction): 0.00937
In acetonitrile, 323.15 K
  solubility (mole fraction): 0.0117
In ethanol, 283.15 K
  solubility (mole fraction): 0.00483
In ethanol, 288.15 K
  solubility (mole fraction): 0.00511
In ethanol, 293.15 K
  solubility (mole fraction): 0.00546
In ethanol, 298.15 K
  solubility (mole fraction): 0.00581
In ethanol, 303.15 K
  solubility (mole fraction): 0.00633
In ethanol, 308.15 K
  solubility (mole fraction): 0.00694
In ethanol, 313.15 K
  solubility (mole fraction): 0.00736
In ethanol, 318.15 K
  solubility (mole fraction): 0.00785
In ethanol, 323.15 K
  solubility (mole fraction): 0.00823
In ethyl acetate, 283.15 K
  solubility (mole fraction): 0.0126
In ethyl acetate, 288.15 K
  solubility (mole fraction): 0.0143
In ethyl acetate, 293.15 K
  solubility (mole fraction): 0.0162
In ethyl acetate, 298.15 K
  solubility (mole fraction): 0.0183
In ethyl acetate, 303.15 K
  solubility (mole fraction): 0.0208
In ethyl acetate, 308.15 K
  solubility (mole fraction): 0.0235
In ethyl acetate, 313.15 K
  solubility (mole fraction): 0.0265
In ethyl acetate, 318.15 K
  solubility (mole fraction): 0.0299
In ethyl acetate, 323.15 K
  solubility (mole fraction): 0.0337
In isopropanol, 283.15 K
  solubility (mole fraction): 0.00185
In isopropanol, 288.15 K
  solubility (mole fraction): 0.00235
In isopropanol, 293.15 K
  solubility (mole fraction): 0.00292
In isopropanol, 298.15 K
  solubility (mole fraction): 0.00363
In isopropanol, 303.15 K
  solubility (mole fraction): 0.00455
In isopropanol, 308.15 K
  solubility (mole fraction): 0.00566
In isopropanol, 313.15 K
  solubility (mole fraction): 0.00697
In isopropanol, 318.15 K
  solubility (mole fraction): 0.0085
In isopropanol, 323.15 K
  solubility (mole fraction): 0.0102
In methanol, 283.15 K
  solubility (mole fraction): 0.00628
In methanol, 288.15 K
  solubility (mole fraction): 0.00699
In methanol, 293.15 K
  solubility (mole fraction): 0.00754
In methanol, 298.15 K
  solubility (mole fraction): 0.00835
In methanol, 303.15 K
  solubility (mole fraction): 0.00923
In methanol, 308.15 K
  solubility (mole fraction): 0.0103
In methanol, 313.15 K
  solubility (mole fraction): 0.0113
In methanol, 318.15 K
  solubility (mole fraction): 0.0126
In methanol, 323.15 K
  solubility (mole fraction): 0.014
In methyl acetate, 283.15 K
  solubility (mole fraction): 0.0161
In methyl acetate, 288.15 K
  solubility (mole fraction): 0.0185
In methyl acetate, 293.15 K
  solubility (mole fraction): 0.022
In methyl acetate, 298.15 K
  solubility (mole fraction): 0.0255
In methyl acetate, 303.15 K
  solubility (mole fraction): 0.0293
In methyl acetate, 308.15 K
  solubility (mole fraction): 0.0351
In methyl acetate, 313.15 K
  solubility (mole fraction): 0.0401
In methyl acetate, 318.15 K
  solubility (mole fraction): 0.0461
In methyl acetate, 323.15 K
  solubility (mole fraction): 0.0519
In n-butanol, 283.15 K
  solubility (mole fraction): 0.00205
In n-butanol, 288.15 K
  solubility (mole fraction): 0.00266
In n-butanol, 293.15 K
  solubility (mole fraction): 0.00323
In n-butanol, 298.15 K
  solubility (mole fraction): 0.00438
In n-butanol, 303.15 K
  solubility (mole fraction): 0.00559
In n-butanol, 308.15 K
  solubility (mole fraction): 0.00709
In n-butanol, 313.15 K
  solubility (mole fraction): 0.0091
In n-butanol, 318.15 K
  solubility (mole fraction): 0.0123
In n-butanol, 323.15 K
  solubility (mole fraction): 0.0154
In n-pentanol, 283.15 K
  solubility (mole fraction): 0.0016
In n-pentanol, 288.15 K
  solubility (mole fraction): 0.00182
In n-pentanol, 293.15 K
  solubility (mole fraction): 0.0021
In n-pentanol, 298.15 K
  solubility (mole fraction): 0.0024
In n-pentanol, 303.15 K
  solubility (mole fraction): 0.00278
In n-pentanol, 308.15 K
  solubility (mole fraction): 0.00325
In n-pentanol, 313.15 K
  solubility (mole fraction): 0.0038
In n-pentanol, 318.15 K
  solubility (mole fraction): 0.00469
In n-pentanol, 323.15 K
  solubility (mole fraction): 0.0054
In n-propanol, 283.15 K
  solubility (mole fraction): 0.00209
In n-propanol, 288.15 K
  solubility (mole fraction): 0.00229
In n-propanol, 293.15 K
  solubility (mole fraction): 0.00259
In n-propanol, 298.15 K
  solubility (mole fraction): 0.00296
In n-propanol, 303.15 K
  solubility (mole fraction): 0.00331
In n-propanol, 308.15 K
  solubility (mole fraction): 0.00382
In n-propanol, 313.15 K
  solubility (mole fraction): 0.00425
In n-propanol, 318.15 K
  solubility (mole fraction): 0.00487
In n-propanol, 323.15 K
  solubility (mole fraction): 0.00553
In sec-butanol, 283.15 K
  solubility (mole fraction): 0.000727
In sec-butanol, 288.15 K
  solubility (mole fraction): 0.000891
In sec-butanol, 293.15 K
  solubility (mole fraction): 0.00112
In sec-butanol, 298.15 K
  solubility (mole fraction): 0.00151
In sec-butanol, 303.15 K
  solubility (mole fraction): 0.00213
In sec-butanol, 308.15 K
  solubility (mole fraction): 0.00287
In sec-butanol, 313.15 K
  solubility (mole fraction): 0.00382
In sec-butanol, 318.15 K
  solubility (mole fraction): 0.00501
In sec-butanol, 323.15 K
  solubility (mole fraction): 0.00632
In toluene, 283.15 K
  solubility (mole fraction): 0.00714
In toluene, 288.15 K
  solubility (mole fraction): 0.00823
In toluene, 293.15 K
  solubility (mole fraction): 0.0095
In toluene, 298.15 K
  solubility (mole fraction): 0.0112
In toluene, 303.15 K
  solubility (mole fraction): 0.0132
In toluene, 308.15 K
  solubility (mole fraction): 0.0156
In toluene, 313.15 K
  solubility (mole fraction): 0.0189
In toluene, 318.15 K
  solubility (mole fraction): 0.0232
In toluene, 323.15 K
  solubility (mole fraction): 0.0276
In water, 283.15 K
  solubility (mole fraction): 7.5e-05
In water, 288.15 K
  solubility (mole fraction): 9.4e-05
In water, 293.15 K
  solubility (mole fraction): 0.000113
In water, 298.15 K
  solubility (mole fraction): 0.000127
In water, 303.15 K
  solubility (mole fraction): 0.000154
In water, 308.15 K
  solubility (mole fraction): 0.000181
In water, 313.15 K
  solubility (mole fraction): 0.000222
In water, 318.15 K
  solubility (mole fraction): 0.000273
In water, 323.15 K
  solubility (mole fraction): 0.000331
